Consider one compound from paper PMC6934184, “Selective DNA-PKcs inhibition extends the therapeutic index of localized radiotherapy and chemotherapy” (The Journal of Clinical Investigation, 2019).

The structures appear in SMILES notation.

This experiment addresses T1, FGFR1 V561M (Homo sapiens, UniProt P11362, V561M).
T1 construct: purchased Thermo Fisher Scientific (Life Technologies) SelectScreen
Description: SelectScreen LanthaScreen. The format is binding. The settings on record: read-out: % displacement. The method in brief: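 NU5455 was profiled across the SelectScreen Broad panel of kinase activity and binding assays. Z'LYTE reactions such as CSF1R ran at apparent Km ATP, while the Adapta CAMK1 assay used ATP listed as 10. Values are given as percent.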

T1 sequence (P11362 22-822 V561M): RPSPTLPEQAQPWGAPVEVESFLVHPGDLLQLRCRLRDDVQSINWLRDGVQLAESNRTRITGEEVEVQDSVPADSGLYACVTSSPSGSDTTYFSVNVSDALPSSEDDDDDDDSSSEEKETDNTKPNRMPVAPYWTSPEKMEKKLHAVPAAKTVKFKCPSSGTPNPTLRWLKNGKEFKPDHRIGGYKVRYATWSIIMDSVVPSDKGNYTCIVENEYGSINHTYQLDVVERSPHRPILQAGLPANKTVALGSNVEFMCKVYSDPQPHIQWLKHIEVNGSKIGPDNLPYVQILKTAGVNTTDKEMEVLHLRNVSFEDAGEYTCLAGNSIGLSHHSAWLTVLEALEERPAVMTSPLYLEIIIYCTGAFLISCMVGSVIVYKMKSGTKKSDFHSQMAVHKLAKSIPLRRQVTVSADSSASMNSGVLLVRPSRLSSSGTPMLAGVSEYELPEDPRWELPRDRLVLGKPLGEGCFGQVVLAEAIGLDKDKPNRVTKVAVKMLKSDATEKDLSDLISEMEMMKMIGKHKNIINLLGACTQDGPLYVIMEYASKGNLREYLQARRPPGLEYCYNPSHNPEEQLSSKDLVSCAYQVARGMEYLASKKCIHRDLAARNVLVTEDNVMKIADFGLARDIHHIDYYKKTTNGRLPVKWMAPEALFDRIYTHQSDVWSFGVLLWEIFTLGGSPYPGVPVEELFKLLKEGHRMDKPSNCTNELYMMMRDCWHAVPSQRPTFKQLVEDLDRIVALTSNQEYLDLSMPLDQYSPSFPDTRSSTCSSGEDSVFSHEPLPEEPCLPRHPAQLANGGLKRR

On to `CN(C(=O)CN1CCOCC1)c1ccc2sc3c(-c4cccc5c(=O)cc(N6CC7CCC(C6)O7)oc45)cccc3c2c1` [NU5455], for which the inhibition at 1 µM turned out to be 5.1%.
